From patent US20230040182A1, “ARYL HETEROBICYCLIC COMPOUNDS AS Kv1.3 POTASSIUM SHAKER CHANNEL BLOCKERS” (priority 2019, published 2023) come the findings set out here.

The target in one test is T1, hERG channel (Homo sapiens, UniProt Q12809).
T1 construct: expressed in transfected cells
The test can be described thus: hERG electrophysiology, automated whole-cell patch clamp (Patchliner). It counts as cell-based. The note with it: CHO-K1 cells stably expressing hERG; whole-cell current, Hill fit. On the procedure: Example 10. Evaluation of hERG Activities
This assay is used to evaluate the disclosed compounds' inhibition activities against the hERG channel.
CHO-K1 cells stably expressing hERG were grown in Ham's F-12 Medium with Glutamine containing 10% heat-inactivated FBS, 1% Penicillin/Streptomycin, Hygromycin (100 μg/ml) and G418 (100 μg/ml). Cells were grown in culture flasks at 37° C. in a 5% CO2-humidified incubator.
The cells were bathed in an extracellular solution containing 140 mM NaCl, 4 mM KCl, 2 mM CaCl2), 1 mM MgCl2, 5 mM Glucose, 10 mM HEPES; pH adjusted to 7.4 with NaOH; 295-305 mOsm. The internal solution contained 50 mM KCl, 10 mM NaCl, 60 mM KF, 20 mM EGTA, 10 mM HEPES; pH adjusted to 7.2 with KOH; 285 mOsm. All compounds were dissolved in DMSO at 30 mM. Compound stock solutions were freshly diluted with external solution to concentrations of 30 nM, 100 nM, 300 nM, 1 μM, 3 μM, 10 μM, 30 μM and 100 μM. The highest content of DMSO (0.3%) was present in 100 μM.
The voltage protocol (see Table B) was designed to simulate voltage changes during a cardiac action potential with a 300 ms depolarization to +20 mV (analogous to the plateau phase of the cardiac action potential), a repolarization for 300 ms to −50 mV (inducing a tail current) and a final step to the holding potential of −80 mV. The pulse frequency was 0.3 Hz. Control (compound-free) and compound pulse trains for each compound concentration applied contained 70 pulses.
(§1) Whole-cell current recordings and compound application were enabled by means of an automated patch clamp platform Patchliner (Nanion). EPC 10 patch clamp amplifier (HEKA) along with Patchmaster software (HEKA Elektronik Dr. Schulze GmbH) was used for data acquisition. Data were sampled at 10 kHz without filtering. Increasing compound concentrations were applied consecutively to the same cell without washouts in between.
(§2) AUC and PEAK values were obtained with Patchmaster (HEKA Elektronik Dr. Schulze GmbH). To determine IC50 the last single pulse in the pulse train corresponding to a given compound concentration was used. Obtained AUC and PEAK values in the presence of compound were normalized to control values in the absence of compound. Using Origin (OridinLab), IC50 was derived from data fit to Hill equation: Icompound/Icontrol=(100−A)/(1+([compound]/IC50)nH)+A, where IC50 is the concentration at which current inhibition is half-maximal, [compound] is the applied compound concentration, A is the fraction of current that is not blocked and nH is the Hill coefficient.

The next test has as its target T2, Kv1.3 potassium channel (Homo sapiens, UniProt P22001).
T2 construct: expressed in transfected cells
Nature of the test: Kv1.3 potassium channel blocker activity, automated whole-cell patch clamp (Patchliner). The note with it: CHO-K1 cells stably expressing Kv1.3; whole-cell current, Hill fit. It counts as cell-based. The procedure:
Example 9. Evaluation of Kv1.3 Potassium Channel Blocker Activities
This assay is used to evaluate the disclosed compounds' activities as Kv1.3 potassium channel blockers.
CHO-K1 cells stably expressing Kv1.3 were grown in DMEM containing 10% heat-inactivated FBS, 1 mM Sodium Pyruvate, 2 mM L-Glutamine and G418 (500 μg/ml). Cells were grown in culture flasks at 37° C. in a […] incubator.
The cells were bathed in an extracellular solution containing 140 mM NaCl, 4 mM KCl, 2 mM CaCl2, 1 mM MgCl2, 5 mM Glucose, 10 mM HEPES; pH adjusted to 7.4 with NaOH; 295-305 mOsm. The internal solution contained 50 mM KCl, 10 mM NaCl, 60 mM KF, 20 mM EGTA, 10 mM HEPES; pH adjusted to 7.2 with KOH; 285 mOsm. All compounds were dissolved in DMSO at 30 mM. Compound stock solutions were freshly diluted with external solution to concentrations of 30 nM, 100 nM, 300 nM, 1 μM, 3 μM, 10 μM, 30 μM and 100 μM. The highest content of DMSO (0.3%) was present in 100 μM.
The currents were evoked by applying 100 ms depolarizing pulses from −90 mV (holding potential) to +40 mV were applied with 0.1 Hz frequency. Control (compound-free) and compound pulse trains for each compound concentration applied contained 20 pulses. 10-second breaks were used between pulse trains (see Table A below).
as §1, with “(Nanion Technologies GmbH).” for “(Nanion).”, “(HEKA Elektronik Dr. Schulze GmbH)” for “(HEKA)”, “filtering. Passive leak currents were subtracted online using a P/4 procedure (HEKA Elektronik Dr. Schulze GmbH).” for “filtering.”, “between. Total compound incubation time before the next pulse train was not longer than 10 seconds. Peak current inhibition was observed during compound equilibration.” for “between.”
as §2, with “AUC and peak values were” for “AUC and PEAK values were”, “To determine IC50, the last” for “To determine IC50 the last”, “AUC and peak values in” for “AUC and PEAK values in”, “where IC50 value is the” for “where IC50 is the”

Structures are written as SMILES.

T2 sequence (P22001 whole entry): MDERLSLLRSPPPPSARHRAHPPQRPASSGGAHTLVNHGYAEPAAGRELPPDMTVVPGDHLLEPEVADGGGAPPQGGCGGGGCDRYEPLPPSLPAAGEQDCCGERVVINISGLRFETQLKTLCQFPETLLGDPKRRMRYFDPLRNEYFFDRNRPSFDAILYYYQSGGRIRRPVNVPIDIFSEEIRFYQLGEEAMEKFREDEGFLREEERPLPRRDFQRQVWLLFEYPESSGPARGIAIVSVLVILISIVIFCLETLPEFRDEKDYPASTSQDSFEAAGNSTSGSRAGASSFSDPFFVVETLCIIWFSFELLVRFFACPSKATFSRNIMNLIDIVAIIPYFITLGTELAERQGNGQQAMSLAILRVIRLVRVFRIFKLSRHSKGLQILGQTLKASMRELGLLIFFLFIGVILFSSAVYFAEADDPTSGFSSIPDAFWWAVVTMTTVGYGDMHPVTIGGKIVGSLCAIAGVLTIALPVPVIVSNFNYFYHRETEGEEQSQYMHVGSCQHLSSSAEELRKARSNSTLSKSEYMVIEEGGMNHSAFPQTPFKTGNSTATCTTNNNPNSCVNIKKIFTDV
T1 sequence (Q12809 whole entry): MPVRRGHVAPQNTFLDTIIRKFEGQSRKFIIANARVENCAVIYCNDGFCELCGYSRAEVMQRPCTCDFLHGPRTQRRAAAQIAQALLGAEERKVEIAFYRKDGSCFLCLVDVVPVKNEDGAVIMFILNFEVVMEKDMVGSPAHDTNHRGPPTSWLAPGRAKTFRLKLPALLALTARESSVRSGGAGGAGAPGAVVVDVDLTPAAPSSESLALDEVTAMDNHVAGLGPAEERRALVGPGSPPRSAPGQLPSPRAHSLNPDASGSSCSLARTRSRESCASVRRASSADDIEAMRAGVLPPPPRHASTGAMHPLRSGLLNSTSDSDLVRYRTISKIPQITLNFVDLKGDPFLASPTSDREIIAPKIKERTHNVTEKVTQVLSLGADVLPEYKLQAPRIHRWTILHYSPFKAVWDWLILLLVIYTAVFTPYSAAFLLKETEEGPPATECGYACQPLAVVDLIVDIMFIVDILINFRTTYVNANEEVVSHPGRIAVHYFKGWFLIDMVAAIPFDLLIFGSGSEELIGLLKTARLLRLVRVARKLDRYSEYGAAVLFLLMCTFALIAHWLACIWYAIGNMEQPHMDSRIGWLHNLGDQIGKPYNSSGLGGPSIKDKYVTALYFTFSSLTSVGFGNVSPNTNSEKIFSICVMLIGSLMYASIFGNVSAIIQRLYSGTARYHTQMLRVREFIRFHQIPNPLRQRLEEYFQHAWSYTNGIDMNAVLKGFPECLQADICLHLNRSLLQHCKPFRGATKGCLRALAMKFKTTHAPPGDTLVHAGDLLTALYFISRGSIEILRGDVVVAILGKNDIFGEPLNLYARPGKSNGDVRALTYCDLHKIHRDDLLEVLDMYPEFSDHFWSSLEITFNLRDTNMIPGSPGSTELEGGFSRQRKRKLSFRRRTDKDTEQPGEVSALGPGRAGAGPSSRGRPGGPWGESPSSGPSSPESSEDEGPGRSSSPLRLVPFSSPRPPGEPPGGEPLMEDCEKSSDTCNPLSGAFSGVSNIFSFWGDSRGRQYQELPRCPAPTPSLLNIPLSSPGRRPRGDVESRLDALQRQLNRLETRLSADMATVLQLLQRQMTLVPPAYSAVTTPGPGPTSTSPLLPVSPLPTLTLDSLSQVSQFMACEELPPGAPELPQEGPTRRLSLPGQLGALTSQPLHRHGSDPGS

Consider `O=C1[C@H]2[C@@H](O)CCN2C(=O)[C@@H]2C[C@H](c3c(O)ccc(Cl)c3Cl)CCN12` [Compound 12, (1S,5aS,7R,11aR)-7-(2,3-dichloro-6-hydroxyphenyl)-1-hydroxyhexahydro-1H-pyrido[1,2-a]pyrrolo[1,2-d]pyrazine-5,11(5aH,11aH)-dione], for which the IC50 on hERG channel was > 30 µM; against Kv1.3 potassium channel, < 1 µM.

`C[C@H]1NC(=O)[C@@H]2C[C@H](c3c(O)ccc(Cl)c3Cl)CCN2C1=O` [Compound 58, (3R,8R,9aS)-8-(2,3-dichloro-6-hydroxyphenyl)-3-methyl-hexahydro-2H-pyrido[1,2-a]pyrazine-1,4-dione]: the IC50 at hERG channel was > 30 µM; against Kv1.3 potassium channel, < 1 µM.

As to `O=C1[C@@H]2C[C@H](c3c(O)ccc(Cl)c3Cl)CCN2C(=O)CN1C1CC(O)C1` (single isomer, unassigned; isomer 1) [Compound 14, 8-(2,3-dichloro-6-hydroxyphenyl)-2-[3-hydroxycyclobutyl]-hexahydropyrido[1,2-a]pyrazine-1,4-dione isomer 1], the IC50 is > 30 µM against hERG channel and < 1 µM on Kv1.3 potassium channel.

In the case of `CN1CC(=O)N2CCC(c3c(O)ccc(Cl)c3Cl)CC2C1=O` (stereo not shown) [Compound 36, 8-(2,3-dichloro-6-hydroxyphenyl)-2-methyl-octahydro-1H-pyrido[1,2-a]pyrazine-1,4-dione], the IC50 was > 30 µM against hERG channel and < 1 µM on Kv1.3 potassium channel.

With `NN1C(=O)[C@@H]2C[C@H](c3c(O)ccc(Cl)c3Cl)CCN2C1=O` [Compound 68, (7R,8aS)-2-amino-7-(2,3-dichloro-6-hydroxyphenyl)tetrahydro-imidazo[1,5-a]pyridine-1,3(2H,5H)-dione], the IC50 against hERG channel is > 30 µM; at Kv1.3 potassium channel it was < 1 µM.

As to `CN1C(=O)[C@@H]2C[C@H](c3c(O)ccc(Cl)c3Cl)CCN2C(=O)[C@H]1CO` [Compound 6, (3R,8R,9aS)-8-(2,3-dichloro-6-hydroxyphenyl)-3-(hydroxymethyl)-2-methyl-hexahydropyrido[1,2-a]pyrazine-1,4-dione], the IC50 was > 30 µM on hERG channel and < 1 µM on Kv1.3 potassium channel.

In the case of `O=C1[C@@H]2C[C@H](c3c(O)ccc(Cl)c3Cl)CCN2C(=O)CN1CCO` (relative stereo) [Compound 7, (8R,9aS)-rel-8-(2,3-dichloro-6-hydroxyphenyl)-2-(2-hydroxyethyl)hexahydro-4H-pyrido[1,2-a]pyrazine-1,4(6H)-dione], the IC50 on hERG channel was > 30 µM; on Kv1.3 potassium channel, < 1 µM.

As for `Cc1cc(O)c([C@@H]2CCN3C(=O)[C@@H](CO)NC(=O)[C@@H]3C2)c(Cl)c1Cl` (relative stereo) [Compound 22, (8R,9aS)-rel-8-(2,3-dichloro-6-hydroxy-4-methylphenyl)-3-((3R)-hydroxymethyl)-hexahydro-2H-pyrido[1,2-a]pyrazine-1,4-dione], the IC50 on hERG channel was > 30 µM; at Kv1.3 potassium channel, < 1 µM.

For the compound `O=C1[C@@H]2C[C@H](c3c(O)ccc(Cl)c3Cl)CCN2C(=O)CN1C(CO)CO` [Compound 32, (8R,9aS)-8-(2,3-dichloro-6-hydroxyphenyl)-2-(1,3-dihydroxypropan-2-yl)hexahydro-4H-pyrido[1,2-a]pyrazine-1,4(6H)-dione], the figures for the IC50 on hERG channel and against Kv1.3 potassium channel were > 30 µM and < 1 µM, respectively.

`O=C1N[C@H](CO)C(=O)N2CC[C@@H](c3c(O)ccc(Cl)c3Cl)C[C@@H]12` [Compound 2, (3R,8R,9aS)-8-(2,3-dichloro-6-hydroxyphenyl)-3-(hydroxymethyl)-hexahydro-2H-pyrido[1,2-a]pyrazine-1,4-dione]: the IC50 is > 30 µM against hERG channel and < 1 µM at Kv1.3 potassium channel.

Take `O=C1[C@@H]2C[C@H](c3cc(Cl)c(Cl)cc3O)CCN2C(=O)CN1C1CNC1` [Compound 50, (8R,9aS)-2-(azetidin-3-yl)-8-(4,5-dichloro-2-hydroxyphenyl)hexahydro-4H-pyrido[1,2-a]pyrazine-1,4(6H)-dione]: the half-maximal inhibitory concentration (IC50) is > 30 µM against hERG channel and < 1 µM on Kv1.3 potassium channel.

Turning to `O=C1[C@@H]2C[C@H](c3c(O)ccc(Cl)c3Cl)CCN2C(=O)[C@H]2C[C@@H](O)CN12` [Compound 52, (2R,5aS,7R,11aR)-7-(2,3-dichloro-6-hydroxyphenyl)-2-hydroxyhexahydro-1H-pyrido[1,2-a]pyrrolo[1,2-d]pyrazine-5,11(5aH,11aH)-dione], the IC50 at hERG channel was > 30 µM; on Kv1.3 potassium channel, < 1 µM.

As for `O=C1[C@H]2C[C@@H](c3c(O)ccc(Cl)c3Cl)CCN2C(=O)CN1C1CNC1` [Compound 64, (8S,9aR)-2-(azetidin-3-yl)-8-(2,3-dichloro-6-hydroxyphenyl)-octahydro-1H-pyrido[1,2-a]pyrazine-1,4-dione], the figures for the IC50 at hERG channel and on Kv1.3 potassium channel were > 30 µM and < 1 µM, respectively.

For `C[C@H](O)[C@H]1NC(=O)[C@@H]2C[C@H](c3c(O)ccc(Cl)c3Cl)CCN2C1=O` [Compound 3, (3R,8R,9aS)-8-(2,3-dichloro-6-hydroxyphenyl)-3-[(1S)-1-hydroxyethyl]-hexahydro-2H-pyrido[1,2-a]pyrazine-1,4-dione], the IC50 at hERG channel is > 30 µM; on Kv1.3 potassium channel, < 1 µM.

As for `O=C1[C@@H]2C[C@H](c3c(O)ccc(Cl)c3Cl)CCN2C(=O)CN1CCO` [Compound 26, (8R,9aS)-8-(2,3-dichloro-6-hydroxyphenyl)-2-(2-hydroxyethyl)-hexahydropyrido[1,2-a]pyrazine-1,4-dione], the values for the IC50 on hERG channel and against Kv1.3 potassium channel were > 30 µM and < 1 µM, respectively.

For the compound `COC[C@H]1NC(=O)[C@@H]2C[C@H](c3c(O)ccc(Cl)c3Cl)CCN2C1=O` (relative stereo) [Compound 55, (8R,9aS)-rel-8-(2,3-dichloro-6-hydroxyphenyl)-3-((3R)-methoxymethyl)-hexahydro-2H-pyrido[1,2-a]pyrazine-1,4-dione], the results for the IC50 at hERG channel and on Kv1.3 potassium channel were > 30 µM and < 1 µM, respectively.

As for `O=C1[C@H]2C[C@H](c3c(O)ccc(Cl)c3Cl)CCN2C(=O)CN1CCO` (relative stereo) [Compound 18, (8R,9aR)-rel-8-(2,3-dichloro-6-hydroxyphenyl)-2-(2-hydroxyethyl)-hexahydropyrido[1,2-a]pyrazine-1,4-dione], the IC50 is > 30 µM on hERG channel and < 1 µM against Kv1.3 potassium channel.
